In US11278682B2, “Device and method for aerosolized delivery of substance to a natural orifice of the body” (SIPNOSE LTD., priority 2014, dated 2022):
“Also recorded” adds a separate entry of the source.

Columns and labels:
[1] = test system: New Zealand White female rabbits; test: Nasal cavity irritation and general toxicity of repeated intra-nasal Midazolam
Experimental: Nasal cavity irritation and general toxicity were assessed for repeated intra-nasal applications of Midazolam to rabbits, using a SipNose intra-nasal delivery device. Six New Zealand White female rabbits were used, with the three experimental animals being given two 200 μL doses of Midazolam (5 mg/ml) per day, six hours apart. The three control animals were given four 200 μL doses of saline solution per day, at 3 hour intervals.
The daily dosing was repeated for 10 days, for 11 days' dosage in total. 24 hours after the last dosing, the animals were sacrificed.
The animals were observed once daily until study termination. Shortly before sacrifice, blood was taken for testing.
After sacrifice, gross pathology was performed, examining major tissue and organ systems. Organs (nasal cavity (including olfactory epithelium), nasopharynx, paranasal sinus, trachea, lungs, larynx, brain (olfactory bulbs and hippocampus), heart, olfactory nerve, optic nerve and lacrimal glands) of all animals were harvested and examined. Three cross sections of the skull were taken: (1) in the nose from rostral, (2) behind the incisor teeth and (3) caudal, including the olfactory epithelium labyrinth, as shown in FIG. 85.
Brains were dissected in the olfactory regions and the hippocampus. Lungs were evaluated in both right and left lobes. Tissues were trimmed, embedded in paraffin, sectioned at no more than 5 microns thickness, and stained with Hematoxylin & Eosin (H&E).
In order to alleviate the discomfort an animal might endure during intra-nasal administration, prior to placement the sipNose device, Lidocaine was applied locally in the nasal area.

[2] = test system: Pentylenetetrazol (PTZ)-induced epileptic seizures in rats; test: Brain concentration of Midazolam vs convulsion score in PTZ-induced seizures; assay type: in vivo, rat; conditions: 60 minutes after administration
Experimental: Epileptic seizures were induced in rats by administration of Pentylenetetrazol (PTZ) and the severity of the seizures was measured 60 minutes after administration of Mizadolam. Doses of Mizadolam varied from zero to 6 mg/kg with SipNose nasal delivery device and with an I/V administration. Brain concentrations of Midazolam were measured and a correlation between brain concentration and convulsions score is shown in FIG. 81. Brain concentrations varied from zero to 130 ng/gr brain tissue. Black squares represent the I/V administrated animals and black dots represent the SipNose administrated animals.

[3] = Midazolam pharmacokinetic study, plasma and brain, SipNose vs IV; conditions: rats
Experimental: Concentration of Midazolam in the plasma and brain of rats were compared for intranasal administration via the SipNose delivery device and via IV administration. A standard drug formulation (Injectable Midazolam 5 mg/ml, Pfizer/Hospira brand) was used, with no reformulation or adaptation for nasal delivery. Two drug concentrations were used for the intranasal administration, 0.2 mg/kg (dashed line in FIGS. 91 and 92) and 0.6 mg/kg (dot-dash line in FIGS. 91 and 92), compared to the standard of care I/V administration of 0.6 mg/kg (solid line in FIGS. 91 and 92). Concentration was measured 10 times in the 12 hours of the study. For each measurement time, midazolam concentration was measured in the plasma and brain of five animals.

[4] = test system: Sprague-Dawley (SD) rats; test: Safety and toxicity of intranasal Midazolam via SipNose device; assay type: in vivo, rat
Experimental: Safety and possible adverse effects (toxicity) were assessed the safety and toxicity including adverse effects of Midazolam following intranasal administration via SipNose dedicated device to Sprague-Dawley (SD) rats.
A total of 78 SD rats (39 female and 39 male) were utilized. The animals were divided into four groups of 3 or 12 female rats and 3 or 12 male rats. At each of the times 6 hrs, 24 hrs, 7 days, and 14 days, three males and three females were sacrificed.
The test material was a commercially available injectable Midazolam.
The day of dosing was Day 1 and termination days were Day 1 (6 hrs), Day 2 (24 hrs), Day 8 and Day 15.
Each test material or vehicle dose was administrated to three female and three male rats at each of the above times. The administration was performed intranasally (IN) via a SipNose device. The dose volume was 25-125 μl per naris (50-250 μl total per rat). Dosing was performed in an escalating fashion, each increase in dose depending on the outcome of the previous dose. The time between increasing doses was approximately half an hour.
Dosing was performed in a staggered fashion, each increase in dose pending on the outcome of the previous dose. The lag time between the increasing doses was approximately half an hour. The maximum dose was five times the clinical dose in order to determine a maximum tolerated dose.
The test material and vehicle were administered IN once via a SipNose device at a dose volume of 50-250 μl to non-fasting animals.
Animals were observed individually at least once during the first 30 minutes alter dosing and daily thereafter, for a total of 1, 7, or 14 days (according to time of sacrifice for histological observation). All observations were systematically recorded and individual records were maintained for each animal.
Body weight was monitored one day after the animals' arrival, prior to administration of the test material and twice a week thereafter (days 4, 8, 10 and 15) for a total of 5 times.
Clinical signs were observed daily, at least once during the first 30 min after dosing, periodically during the first 24 h, with special attention during the first 4 h, and once daily thereafter.
Animals were sacrificed by carbon dioxide asphyxiation and gross pathology was performed examining the major tissue and organ systems. All animals were subjected to gross necropsy.
The tissue samples from groups 1, 2, 3 and 4 (M+F) were embedded, sectioned and mounted on slides. The tissue sections were stained with Hematoxylin & Eosin (H&E).
Three cross sections of the skull and brain were taken: (1) in the nose from rostral area, (2) behind the incisor teeth and (3) in the caudal area including the olfactory epithelium labyrinth (FIG. 85). The brain was dissected in the olfactory regions, hippocampus, cerebellum and brain stem. The lungs were evaluated in both right and left lobes. The inflammatory status in the tissue samples were evaluated using the following parameters.
• Grade 0: No inflammation • Grade 1: Mild (few inflammatory cells, 10-20 per ×40 high-power field) • Grade 2: moderate (more inflammatory cells, 20-50 per ×40 high-power field), • Grade 3: severe (many inflammatory cells, more than 50 per ×40 high-power field).

[5] = test system: patient suffering from epileptic seizures (SE); test: Anti-epileptic treatment of status epilepticus with Midazolam, EEG recordings (case study); assay type: in vivo, human; conditions: 2 mg Midazolam via SipNose, nasal
Experimental: Case study of a patient, suffering from epileptic seizures (SE) was treated with a dose of 2 mg Midazolam with sipNose delivery device to deliver Midazolam via the nasal cavity.
Administration of Midazolam was done by administrating of […] of Midazolam to each nostril in a carrier volume of 1 ml. EEG recordings were measured before (FIGS. 82A and 82B) and 3 minutes following to the nasal administration of the drug with SipNose device.

Cc1ncc2n1-c1ccc(Cl)cc1C(c1ccccc1F)=NC2 [Midazolam]
Amylase (blood chemistry) ([1]; Midazolam group): 240±13.1 IU/L
all relevant safety parameters (clinical observations, histopathology, ophthalmic examination, haematology, blood analysis) ([1]; Midazolam vs control): no differences were found between the control and study groups
blood coagulation parameters ([1]; Midazolam vs control group): No differences were detected
histopathology ([1]; either group): No major histopathological abnormalities were found
blood chemistry analysis, all results ([1]; repeated intra-nasal Midazolam): within the normal range for the blood of rabbits
blood hematology analysis ([1]; repeated intra-nasal Midazolam vs saline control): None of the parameters showed any difference between the control group and the study group
body weight during the study ([1]; two 200 μL doses of Midazolam (5 mg/ml) per day via SipNose, repeated daily): did not exhibit major changes in weight
finding in frontal nose space ([1]; two animals from the Midazolam group, attributed to device tip): very mild bleeding was detected in the frontal nose space
Midazolam brain concentration at which Racine severity reaches zero ([2]; IV administration): about 130 ng/gm
Midazolam brain concentration up to which Racine severity remained at about 1 ([2]; IV administration): about 25 ng/gm
Midazolam brain concentration needed to completely prevent seizures (score=0) ([2]; SipNose administration): ~11 ng/gm
pharmacokinetic pattern ([3]; 0.6 mg/kg intranasal via SipNose): very similar to that of standard of care (I/V) administration
absorption into blood and brain ([3]; intranasal via SipNose (0.2 and 0.6 mg/kg) vs I/V 0.6 mg/kg): comparable to that seen for I/V administration
death of neurons in the brain ([4]; SD rats, Midazolam treated groups): No death of neurons was detected
adverse effects or histopathological findings in examined tissues ([4]; SD rats, both tested doses (clinical dose and five times clinical dose)): no adverse effects or histopathological findings; also recorded: no pathological abnormalities were found
very mild inflammation in most caudal cross section of the nose ([4]; SD rats, seen in saline and Midazolam groups, 12 out of 42 animals): most probably not drug-related
clinical signs ([4]; SD rats, single intranasal dose via SipNose, up to 14 days): No abnormal clinical signs were detected
weight gain vs control group ([4]; female rats, five times the clinical dose, days 10 and 15): statistically significant greater weight gain
body weight increase vs control group ([4]; male rats, clinical dose of Midazolam, at several times): statistically significant greater increase in weight
time after administration at which brain activity (EEG) is back to normal [5]: 3 min
